Laboratory results: PubChem BioAssay AID1259407 (Chemical Carcinogenesis Research Information System (CCRIS), 2018)
Active and inactive are the calls of the source. The rule behind the calls is not given here.

System: CCRIS mutagenicity, Ames/micronucleus/aberration tests
Assay: CCRIS mutagenicity studies
[1] = Test System: AMES SALMONELLA TYPHIMURIUM, Strain/Indicator: TA98, Metabolic Activation: NONE, Method: PREINCUBATION
[2] = Test System: AMES SALMONELLA TYPHIMURIUM, Strain/Indicator: TA98, Metabolic Activation: NONE, Method: STANDARD PLATE
[3] = Test System: AMES SALMONELLA TYPHIMURIUM, Strain/Indicator: TA98, Metabolic Activation: RAT, LIVER, S-9, AROCLOR 1254, Method: STANDARD PLATE
[4] = Test System: AMES SALMONELLA TYPHIMURIUM, Strain/Indicator: TA100, Metabolic Activation: NONE, Method: PREINCUBATION
[5] = Test System: AMES SALMONELLA TYPHIMURIUM, Strain/Indicator: TA100, Metabolic Activation: NONE, Method: STANDARD PLATE
[6] = Test System: AMES SALMONELLA TYPHIMURIUM, Strain/Indicator: TA100, Metabolic Activation: RAT, LIVER, S-9, AROCLOR 1254, Method: STANDARD PLATE
[7] = Test System: AMES SALMONELLA TYPHIMURIUM, Strain/Indicator: TA1535, Metabolic Activation: NONE, Method: STANDARD PLATE
[8] = Test System: AMES SALMONELLA TYPHIMURIUM, Strain/Indicator: TA1535, Metabolic Activation: RAT, LIVER, S-9, AROCLOR 1254, Method: STANDARD PLATE
[9] = Test System: AMES SALMONELLA TYPHIMURIUM, Strain/Indicator: TA1537, Metabolic Activation: NONE, Method: STANDARD PLATE
[10] = Test System: AMES SALMONELLA TYPHIMURIUM, Strain/Indicator: TA1537, Metabolic Activation: RAT, LIVER, S-9, AROCLOR 1254, Method: STANDARD PLATE
[11] = Test System: AMES SALMONELLA TYPHIMURIUM, Strain/Indicator: TA1538, Metabolic Activation: NONE, Method: STANDARD PLATE
[12] = Test System: AMES SALMONELLA TYPHIMURIUM, Strain/Indicator: TA1538, Metabolic Activation: RAT, LIVER, S-9, AROCLOR 1254, Method: STANDARD PLATE
[13] = Test System: AMES SALMONELLA TYPHIMURIUM, Strain/Indicator: TA98, Metabolic Activation: HAMSTER, LIVER, S-9, AROCLOR 1254, Method: STANDARD PLATE
[14] = Test System: AMES SALMONELLA TYPHIMURIUM, Strain/Indicator: TA100, Metabolic Activation: HAMSTER, LIVER, S-9, AROCLOR 1254, Method: STANDARD PLATE
[15] = Test System: AMES SALMONELLA TYPHIMURIUM, Strain/Indicator: TA1535, Metabolic Activation: HAMSTER, LIVER, S-9, AROCLOR 1254, Method: STANDARD PLATE
[16] = Test System: AMES SALMONELLA TYPHIMURIUM, Strain/Indicator: TA1537, Metabolic Activation: HAMSTER, LIVER, S-9, AROCLOR 1254, Method: STANDARD PLATE
[17] = Test System: AMES SALMONELLA TYPHIMURIUM, Strain/Indicator: TA1538, Metabolic Activation: HAMSTER, LIVER, S-9, AROCLOR 1254, Method: STANDARD PLATE

For `CCCOC(=O)c1cc(O)c(O)c(O)c1`, the mutagenic call (End Point: IN VITRO CHROMOSOMAL ABERRATIONS, Test System: CHO CELLS, Metabolic Activation: RAT, LIVER, S-9, AROCLOR 1254) was “inactive; negative”, the mutagenic call (Test System: AMES SALMONELLA TYPHIMURIUM, Strain/Indicator: TA97, Metabolic Activation: NONE, Method: PREINCUBATION) was “inactive; negative” and the mutagenic call (Test System: AMES SALMONELLA TYPHIMURIUM, Strain/Indicator: TA97, Metabolic Activation: S-9, Method: PREINCUBATION) was “inactive; negative”. For the same compound, the mutagenic call [1] was “inactive; negative”, the mutagenic call [2] was “inactive; negative” and the mutagenic call (Test System: AMES SALMONELLA TYPHIMURIUM, Strain/Indicator: TA98, Metabolic Activation: RAT LIVER S-9, Method: PREINCUBATION) was “inactive; negative”. For the same compound, the mutagenic call [3] was “inactive; negative”, the mutagenic call [4] was “inactive; negative” and the mutagenic call [5] was “inactive; negative”. The mutagenic call (Test System: AMES SALMONELLA TYPHIMURIUM, Strain/Indicator: TA100, Metabolic Activation: RAT LIVER S-9, Method: PREINCUBATION) was “inactive; negative”, the mutagenic call [6] was “inactive; negative” and the mutagenic call (Test System: AMES SALMONELLA TYPHIMURIUM, Strain/Indicator: TA102, Metabolic Activation: NONE, Method: PREINCUBATION) was “inactive; negative”. The mutagenic call (Test System: AMES SALMONELLA TYPHIMURIUM, Strain/Indicator: TA102, Metabolic Activation: S-9, Method: PREINCUBATION) was “active; positive”, the mutagenic call [7] was “inactive; negative” and the mutagenic call [8] was “inactive; negative”. The mutagenic call [9] was “inactive; negative”, the mutagenic call [10] was “inactive; negative” and the mutagenic call [11] was “inactive; negative”. The mutagenic call [12] was “inactive; negative”, the mutagenic call (Test System: Ames Salmonella typhimurium, Strain/Indicator: TA102, Metabolic Activation: None, Method: Preincubation) was “inactive; negative” and the mutagenic call (Test System: Ames Salmonella typhimurium, Strain/Indicator: TA102, Metabolic Activation: Rat, Liver, S-9, Aroclor 1254 in 0.154 M KCl, Method: Preincubation) was “inactive; negative”. For the same compound, the mutagenic call (Test System: E. COLI, Strain/Indicator: WP2, Metabolic Activation: NONE, Method: STANDARD PLATE) was “inactive; negative” and the mutagenic call (Test System: E. COLI, Strain/Indicator: WP2, Metabolic Activation: RAT, LIVER, S-9, AROCLOR 1254, Method: STANDARD PLATE) was “inactive; negative”.
With `O=C1CC(c2ccc(O)cc2)Oc2cc(O)cc(O)c21` (centres undefined) the mutagenic call [13] was “inactive; negative”, the mutagenic call [2] was “inactive; negative” and the mutagenic call [3] was “inactive; negative”. The mutagenic call [14] was “inactive; negative”, the mutagenic call [5] was “inactive; negative” and the mutagenic call [6] was “inactive; negative”. The mutagenic call [15] was “inactive; negative”, the mutagenic call [7] was “inactive; negative” and the mutagenic call [8] was “inactive; negative”. For the same compound, the mutagenic call [16] was “inactive; negative”, the mutagenic call [9] was “inactive; negative” and the mutagenic call [10] was “inactive; negative”. The mutagenic call [17] was “inactive; negative”, the mutagenic call [11] was “inactive; negative” and the mutagenic call [12] was “inactive; negative”.
In the case of `CC12OOC1(C)c1c(ccc3ccccc13)O2` (centres undefined), the mutagenic call [4] is reported as “inactive; negative”.
`O=Nc1c(-c2ccc([N+](=O)[O-])cc2)nc2sccn12` was tested, and the mutagenic call [2] was “active; positive”, the mutagenic call [5] was “active; positive” and the mutagenic call [7] was “active; positive”. For the same compound, the mutagenic call [9] was “active; positive” and the mutagenic call [11] was “active; positive”.
`COC(=O)c1cc(Cc2ccc(N)c(C(=O)OC)c2)ccc1N` was tested, and the mutagenic call [1] was “inactive; negative”, the mutagenic call (Test System: AMES SALMONELLA TYPHIMURIUM, Strain/Indicator: TA98, Metabolic Activation: RAT, LIVER, S-9, PCB, Method: PREINCUBATION) was “active; positive” and the mutagenic call [4] was “inactive; negative”. The mutagenic call (Test System: AMES SALMONELLA TYPHIMURIUM, Strain/Indicator: TA100, Metabolic Activation: RAT, LIVER, S-9, PCB, Method: PREINCUBATION) was “active; positive”.
In the case of `Cl/C=C(\Cl)c1c(Cl)c(Cl)c(Cl)c(Cl)c1Cl`, the mutagenic call [2] is reported as “inactive; negative”, the mutagenic call [3] is reported as “inactive; negative” and the mutagenic call [5] is reported as “inactive; negative”. For the same compound, the mutagenic call [6] was “inactive; negative”.
`O=c1[nH][nH]c2ccccc12` was tested, and the mutagenic call [13] was “inactive; negative”, the mutagenic call [2] was “inactive; negative” and the mutagenic call [3] was “inactive; negative”. The mutagenic call [14] was “inactive; negative”, the mutagenic call [5] was “inactive; negative” and the mutagenic call [6] was “inactive; negative”. The mutagenic call [15] was “inactive; negative”, the mutagenic call [7] was “inactive; negative” and the mutagenic call [8] was “inactive; negative”. The mutagenic call [16] was “inactive; negative”, the mutagenic call [9] was “inactive; negative” and the mutagenic call [10] was “inactive; negative”. The mutagenic call [17] was “inactive; negative”, the mutagenic call [11] was “inactive; negative” and the mutagenic call [12] was “inactive; negative”. For the same compound, the mutagenic call (Test System: MOUSE LYMPHOMA, Strain/Indicator: L5178Y (TK+/TK-), Metabolic Activation: NONE, Method: SUSPENSION/PLATE) was “active; positive. reevaluation of results: positive” and the mutagenic call (Test System: MOUSE LYMPHOMA, Strain/Indicator: L5178Y (TK+/TK-), Metabolic Activation: RAT, LIVER, S-9, AROCLOR 1254, Method: SUSPENSION/PLATE) was “inactive; negative. reevaluation of results: negative”.
In the case of `c1cc2ccc3cc4cccc5ccc6cc(c1)c2c3c6c54`, the mutagenic call [6] is reported as “active; positive”.
`CSC(C)(C)C(=O)N[C@@H](CS)C(=O)O` was tested, and the mutagenic call [1] was “inactive; negative”, the mutagenic call [4] was “inactive; negative” and the mutagenic call (Test System: AMES SALMONELLA TYPHIMURIUM, Strain/Indicator: TA1535, Metabolic Activation: NONE, Method: PREINCUBATION) was “inactive; negative”. For the same compound, the mutagenic call (Test System: AMES SALMONELLA TYPHIMURIUM, Strain/Indicator: TA1537, Metabolic Activation: NONE, Method: PREINCUBATION) was “inactive; negative”, the mutagenic call (Test System: AMES SALMONELLA TYPHIMURIUM, Strain/Indicator: TA1538, Metabolic Activation: NONE, Method: PREINCUBATION) was “inactive; negative” and the mutagenic call (Test System: E. COLI, Strain/Indicator: WP2, Metabolic Activation: NONE, Method: PREINCUBATION) was “inactive; negative”. The mutagenic call (Test System: E. COLI, Strain/Indicator: WP2 UVRA, Metabolic Activation: NONE, Method: PREINCUBATION) was “inactive; negative”.
For `CC(=O)N(C)N=O`, the mutagenic call [7] was “active; positive” and the mutagenic call (Test System: E. COLI, Strain/Indicator: WU3610, Metabolic Activation: NONE, Method: SUSPENSION/PLATE) was “active; positive”.
